As a reminder, the IC50 is the concentration that gives 50% inhibition.

Assay [1] deals with T1, MTDH-SND1 interaction: SND1-NLuc (human SND1 16-339aa fused via 3x GGGS linker to N-terminal firefly luciferase 1-416aa) + CLuc-MTDH (C-terminal firefly luciferase 398-550aa fused via 3x GGGS linker to human MTDH 386-407aa) (Homo sapiens, UniProt Q7KZF4).
T1 construct: CLuc (398-550)-GGGS linker-MTDH (386-407) with HA tag; expressed in HEK293T; cell-free split-luciferase complementation
The experiment in a line: Cell-free split-luciferase assay of MTDH-SND1 interaction disruption, multiple doses (FIG. 3E). It is filed as binding. As to conditions: cell free (HEK293T lysates), curves fit, read-out: MTDH-SND1 interaction (split-luciferase) SND1-NLuc + CLuc-MTDH interaction domains IC50.

The target in assay [2] is T2, MTDH-SND1 interaction (Homo sapiens, UniProt Q7KZF4).
T2 construct: made in house; host or cells: HEK293T cells, transient transfection of pcDNA3.1 plasmids; crude cleared lysates, each fusion expressed separately and the lysates pre-mixed
Put plainly: Cell-free split-luciferase (Split-luc) assay, SND1-NLuc + CLuc-MTDH. As to conditions: for split-luc activity: 50 μM peptide; for IC50: split-luc assay in various concentrations. Format: biochemical. The source says: To generate a luciferase-based screening system, firefly luciferase was split into N- and C-terminals according to previous studies^21-23. Both N- and C-terminal domains alone have almost undetectable luciferase activity (FIG. 10A). Next, the two fragments were fused to SND1 and MTDH interaction domains respectively to generate SND1-NLuc and CLuc-MTDH (Split-luc) (FIG. 10A, left, and Table 3). […] However, when SND1-NLuc+CLuc-MTDH were co-expressed, N- and C-terminal domains of the luciferase fragments were brought close to each other due to the interaction between SND1 and MTDH, and substantial luciferase activity was reconstituted (FIG. 3A, left and FIG. 10A).
Luciferase-based screening. Seed HEK293T cells on 3×15 cm dish at 18-24 hr before transfection with 7-8×10^6 cells per dish targeting 70-80% confluence when start transfection. 20 μg of pCDNA3.1-SND1-NLuc, pCDNA3.1-CLuc-MTDH, or 2 μg of pCDNA3.1-NLuc-CLuc plasmids that described above were transfected to each dish. 72 hr after transfection the cells were lysed with 5 ml of luciferase lysis buffer (2 mM EDTA, 20 mM DTT, 10% glycerol, 1% Triton X-100, 25 mM Tris base, adjusted to pH7.8 with H3PO4) at 4° C. for 20 min. The protein lysates were centrifuged at 13,000 rpm for 10 min, and the supernatant were collected.
For small chemical compound screening, white, flat-bottom, solid 384-well plates were used. Compounds were added into each well as 0.1 μl of 10 mM DMSO solution (or same amount of DMSO, serve as control). The first and last columns were free, and MTDH wild type (PNSDWNAPAEEWGNW) or mutant (PNSDANAPAEEAGNW) peptides were added as positive and negative controls right before screening. Same amount of MTDH-CLuc and SND1-NLuc were pre-mixed at 4° C. for 30 min to generate split-luc. 5 μl of split- or linked-luc was added into each well. 15 μl of luciferase assay buffer (25 mM Glycylglycine pH 7.8, 15 mM K3PO4 pH 7.8, 15 mM MgSO4, 4 mM EGTA, 2 mM ATP added just before use, 10 mM DTT added just before use and 1 mM D-Luciferin added just before use) was then added into each well to get a 20 μl reaction system with 50 μM of compounds (peptides) in each well. The plates were incubated at 4° C. for 1 hr and luciferase activity at each well was measured.
The inhibitory efficiency of each compound was calculated as following: (signal at DMSO well−signal at compound well)/signal at DMSO well. MTDH wild type or mutant peptide in each plate was served as positive and negative controls to monitor the data quality of each plate.
T2 sequence (Q7KZF4 with tags, fused parts or gaps): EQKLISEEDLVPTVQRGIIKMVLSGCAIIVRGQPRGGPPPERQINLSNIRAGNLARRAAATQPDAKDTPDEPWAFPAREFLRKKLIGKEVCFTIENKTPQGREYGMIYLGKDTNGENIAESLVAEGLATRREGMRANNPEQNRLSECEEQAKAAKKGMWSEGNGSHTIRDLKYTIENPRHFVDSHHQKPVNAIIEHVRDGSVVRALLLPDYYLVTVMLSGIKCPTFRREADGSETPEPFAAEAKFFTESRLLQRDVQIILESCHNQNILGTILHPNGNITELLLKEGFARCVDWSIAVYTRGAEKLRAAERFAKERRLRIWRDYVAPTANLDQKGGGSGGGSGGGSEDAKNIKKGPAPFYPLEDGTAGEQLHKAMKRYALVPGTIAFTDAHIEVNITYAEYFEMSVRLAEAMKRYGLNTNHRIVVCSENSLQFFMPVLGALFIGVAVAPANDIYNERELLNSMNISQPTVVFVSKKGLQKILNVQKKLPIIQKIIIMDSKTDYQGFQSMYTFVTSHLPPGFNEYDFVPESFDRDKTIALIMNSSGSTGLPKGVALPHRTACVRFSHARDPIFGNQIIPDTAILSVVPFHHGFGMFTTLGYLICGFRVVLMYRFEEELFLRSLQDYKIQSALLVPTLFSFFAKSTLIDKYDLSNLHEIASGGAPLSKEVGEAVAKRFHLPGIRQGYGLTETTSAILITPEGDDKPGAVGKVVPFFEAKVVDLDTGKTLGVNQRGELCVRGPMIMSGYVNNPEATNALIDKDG

Assay [3] addresses T3, Linked-luc (NLuc and CLuc of firefly luciferase fused together) (Photinus pyralis, UniProt P08659, INS416[…]).
T3 construct: made in house; host or cells: HEK293T cells, transient transfection of pcDNA3.1-NLuc-CLuc; crude cleared lysate
Put plainly: Linked-luciferase (Linked-luc) counter screen, cell free. It is filed as biochemical. As to conditions: 50 μM peptide. The source says:
The interaction between SND1-NLuc and CLuc-MTDH was also validated with co-immunoprecipitation (Co-IP) experiments (FIG. 10B). In the presence of the compounds (inhibitors) that block MTDH-SND1 interaction, the reconstitution of luciferase activity was expected to be reduced (FIG. 3A). Meanwhile, considering the possibility that compounds capable of directly inhibiting the enzymatic activity of luciferase could also result in lower luciferase signal without any blocking effect on MTDH-SND1 interaction, Linked-luc that directly fuse NLuc and CLuc together was generated to be used in counter screening (FIG. 3A, right, and Table 3).
Luciferase-based screening. Seed HEK293T cells on 3×15 cm dish at 18-24 hr before transfection with 7-8×10^6 cells per dish targeting 70-80% confluence when start transfection. 20 μg of pCDNA3.1-SND1-NLuc, pCDNA3.1-CLuc-MTDH, or 2 μg of pCDNA3.1-NLuc-CLuc plasmids that described above were transfected to each dish. 72 hr after transfection the cells were lysed with 5 ml of luciferase lysis buffer (2 mM EDTA, 20 mM DTT, 10% glycerol, 1% Triton X-100, 25 mM Tris base, adjusted to pH7.8 with H3PO4) at 4° C. for 20 min. […]
For small chemical compound screening, white, flat-bottom, solid 384-well plates were used. […] The plates were incubated at 4° C. for 1 hr and luciferase activity at each well was measured.
For orientation: Counterscreens check selectivity or assay interference.

The subject of assay [4] is 4TO7 lung metastases. Put plainly: Established 4TO7 lung macrometastases. It is filed as in vivo, Balb/C females. On the procedure: For FIGS. 7A-7D, 2 k 4TO7 cells were injected into Balb/C females. 2 weeks after the injections, the mice were randomized based on lung metastasis that indicated by BLI, and were divided into four groups followed by vehicle, paclitaxel (Pac), and C26-A6 treatment alone or in combination. For Pac, the mice were treated with 20 mg/kg of Pac twice per week for the first two week and then once per week after that, For C26-A6, the mice were treated with 15 mg/kg of C26-A6 5 days per week. n=6 mice per group. Data represent mean±SEM.
FIG. 7A, Representative mice right before the treatment (week 2) and at week 10 are shown.
FIG. 7B, The BLI signal was quantified at week 2. Significance determined by one-way ANOVA analysis with Dunnett's test for multiple comparisons.
FIG. 7C, The metastasis progression of each individual is shown.
FIG. 7D, Survival rate in each group was analyzed. Significance determined by two-sided Log-rank test.
Lastly, to mimic the clinical scenario of adjuvant chemotherapy following surgical removal of the primary tumors, SCP28 mammary tumors were removed when they reached 5 mm in diameter, the mice were then randomly separated into four groups and subjected to the different treatment regimens as above. […] The mice were then treated with vehicle or paclitaxel and C26-A6 alone or in combination, and the metastasis progression was monitored by BLL.

Assay [5] deals with T4, MTDH-SND1 interaction (Homo sapiens, UniProt Q7KZF4).
T4 construct: endogenous in cells; host or cells: SCP28 cells (lysate)
T4 sequence (Q7KZF4 2-910 limits assumed): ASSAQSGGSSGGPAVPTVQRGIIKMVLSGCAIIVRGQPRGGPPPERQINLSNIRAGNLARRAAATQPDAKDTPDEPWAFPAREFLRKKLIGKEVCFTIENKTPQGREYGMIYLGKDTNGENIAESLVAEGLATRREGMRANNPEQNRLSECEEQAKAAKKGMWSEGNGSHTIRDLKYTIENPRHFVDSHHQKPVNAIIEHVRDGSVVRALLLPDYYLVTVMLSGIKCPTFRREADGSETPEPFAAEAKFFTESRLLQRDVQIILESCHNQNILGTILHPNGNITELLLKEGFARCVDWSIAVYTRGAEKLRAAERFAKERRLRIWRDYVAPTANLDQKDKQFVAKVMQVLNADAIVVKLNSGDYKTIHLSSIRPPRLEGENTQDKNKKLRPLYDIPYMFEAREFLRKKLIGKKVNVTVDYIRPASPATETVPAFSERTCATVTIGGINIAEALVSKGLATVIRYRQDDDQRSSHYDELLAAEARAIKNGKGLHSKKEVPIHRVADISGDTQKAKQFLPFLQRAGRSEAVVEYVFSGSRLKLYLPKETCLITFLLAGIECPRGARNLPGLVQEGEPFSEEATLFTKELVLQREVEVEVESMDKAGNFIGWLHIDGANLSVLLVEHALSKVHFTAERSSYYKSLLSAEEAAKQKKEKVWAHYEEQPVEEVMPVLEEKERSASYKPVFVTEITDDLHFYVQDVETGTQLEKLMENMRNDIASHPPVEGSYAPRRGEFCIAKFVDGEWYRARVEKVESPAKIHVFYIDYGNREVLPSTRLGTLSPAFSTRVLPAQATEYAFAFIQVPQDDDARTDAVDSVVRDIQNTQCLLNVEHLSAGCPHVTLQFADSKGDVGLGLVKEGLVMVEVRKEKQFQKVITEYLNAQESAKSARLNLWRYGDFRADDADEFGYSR
The experiment in a line: Co-immunoprecipitation (Co-IP) in SCP28 lysates with anti-MTDH antibody, Western blot for SND1. Format: binding. To be noted: 500 μM, SCP28 lysate. On the procedure: FIG. 3F, SCP28 cells grown confluent in each 10-cm dish were lysed with 1 ml IP lysis buffer. 500 μM of the compounds were added into each 1 ml of the samples and IP lysis buffer with 2 μg of anti-MTDH antibody. Western blot was then performed to detect SND1 that binds to MTDH.
FIG. 10E, Schematic diagram of Co-IP based confirmation of MTDH-SND1 inhibitory compounds (left). SCP28 cells were lysed for IP assay.2 μg of MTDH antibody together with 500 μM of MTDH wild type (Pep-WT) or mutant (Pep-MT) peptides were added into each 1 ml of samples. Red star indicates wild type MTDH peptide competing off SND1 that binds to MTDH.
Co-immunoprecipitation assay (Co-IP), which is a commonly used standard test to determine protein-protein interaction, was next employed to validate the candidates. Lysates of breast cancer cell line SCP28, a single cell-derived subline from the MDA-MB-231 TNBC cell line^25, was immunoprecipitated with anti-MTDH antibody alone or together with inhibitors (FIG. 3F and FIG. 10E). The samples were then incubated with Protein-A/G beads to pull down MTDH, followed by Western blot analysis to detect SND1. […] Using multiple screening and validation platforms, two classes of compounds, C26s and C32s, were obtained that inhibit MTDH-SND1 interaction.
Immunoprecipitation (IP) and western blotting (WB) analysis. For IP experiment, samples were prepared as previously described^32. 100 μl of the supernatant was transferred to a new tube as input, and the rest was incubated with 2 μg of IgG, anti-Myc (Santa Cruz, SC-40), or anti-MTDH (ThermoFisher, 40-6500) (as indicated in each experiment) overnight at 4° C. (small chemical compounds may be added at this step as indicated in each experiment). The rest standard IP procedures were performed as previously noted^32. […]
(In general: Immunoblotting shows a protein as a band on a membrane.)

T1 sequence (Q7KZF4 with tags, fused parts or gaps): as the sequence (Q7KZF4 with tags, fused parts or gaps) above
T1 sequence (Q86UE4 386-407 partner): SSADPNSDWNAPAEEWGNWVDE
T3 sequence (P08659 with tags, fused parts or gaps INS416[withheld]): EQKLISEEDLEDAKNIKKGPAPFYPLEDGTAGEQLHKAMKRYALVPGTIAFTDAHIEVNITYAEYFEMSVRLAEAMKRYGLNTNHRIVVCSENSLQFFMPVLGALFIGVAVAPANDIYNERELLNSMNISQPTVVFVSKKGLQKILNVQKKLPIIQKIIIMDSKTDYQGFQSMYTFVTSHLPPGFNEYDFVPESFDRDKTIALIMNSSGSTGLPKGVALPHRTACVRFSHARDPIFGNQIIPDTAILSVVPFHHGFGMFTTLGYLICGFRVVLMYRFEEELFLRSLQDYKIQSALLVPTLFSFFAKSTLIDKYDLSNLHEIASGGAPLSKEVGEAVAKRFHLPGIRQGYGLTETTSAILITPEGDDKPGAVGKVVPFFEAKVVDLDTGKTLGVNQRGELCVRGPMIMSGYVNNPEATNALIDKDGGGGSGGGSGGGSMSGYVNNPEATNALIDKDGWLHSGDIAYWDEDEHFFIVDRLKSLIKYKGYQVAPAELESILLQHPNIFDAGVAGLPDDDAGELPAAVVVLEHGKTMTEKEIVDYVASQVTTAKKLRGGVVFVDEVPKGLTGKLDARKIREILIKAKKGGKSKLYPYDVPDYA

In the case of `COc1ccc(Cl)cc1S(=O)(=O)Nc1cccn2nc(C)nc12` [Compound C26-A6], the IC50 in assay [1] was determined as 2.4 µM.
The same measure, in the same setting: under `COc1ccc(Cl)cc1S(=O)(=O)Nc1cccn2cnnc12` [Compound C26-A1] stands 8.6 µM; under `COc1ccc(NC(=O)N2CCc3c(C(=O)NC4CCN(C)CC4)cccc32)cc1` [Compound C32], 51.1 µM.
The same measure, in the same setting: the figure for `COc1ccc(NC(=O)N2CCc3c(C(=O)NC4CCN(C5CC5)CC4)cccc32)cc1` [Compound C32-A2] is 14.5 µM.
The same measure, in the same setting: the figure for `COc1ccc(Cl)cc1S(=O)(=O)Nc1cccn2c(C3CCC3)nnc12` [Compound C26] is 14.9 µM.
For `CNC(=O)c1cccc2c1CCN2C(=O)Nc1ccc(OC)cc1` [Compound C32-A4], the 50% inhibitory concentration (IC50) in assay [1] came out at 4.9 µM.
Regarding “PNSDANAPAEEAGNW [MTDH-MT, reference compound]”, in assay [2], the split-luc activity result is on record as “but not the mutant significantly inhibited split-luc activity”. Further, the linked-luc activity result in assay [3] is “not affected”.
Turning to `COc1ccc(Cl)cc1S(=O)(=O)Nc1cccn2c(C3CCC3)nnc12` [Analog C26], the IC50 in assay [2] was less than 20 µM.
On to `CC(=O)O[C@H]1C(=O)[C@@]2(C)[C@H]([C@H](OC(=O)c3ccccc3)[C@]3(O)C[C@H](OC(=O)[C@H](O)[C@@H](NC(=O)c4ccccc4)c4ccccc4)C(C)=C1C3(C)C)[C@]1(OC(C)=O)CO[C@@H]1C[C@@H]2O` [paclitaxel, reference compound], for which the “metastatic growth (BLI)” value in assay [4] (Pac 20 mg/kg, C26-A6 15 mg/kg 5 days per week) is “slowed down metastatic growth”. Also, the metastasis shrinkage entry in assay [4] (six mice per group) is given as “did not result in metastasis shrinkage”.
`COc1ccc(NC(=O)N2CCc3c(C(=O)N(C)C)cccc32)cc1` [Compound C32-A5]: the IC50 in assay [1] amounted to 4.6 µM.
On to “PNSDWNAPAEEWGNW [MTDH-WT, reference compound]”, for which the “MTDH-SND1 interaction (SND1 that binds to MTDH, Co-IP)” value in assay [5] is “blocks MTDH-SND1 interaction”. Besides, the split-luc activity result in assay [2] is given as “significantly inhibited split-luc activity”. The linked-luc activity result in assay [3] is recorded as “not affected”.
As for `COc1ccc(Cl)cc1S(=O)(=O)Nc1cccn2ncnc12` [Compound C26-A2], in assay [1], the IC50 was found to be 9.4 µM.
Take `COc1ccc(NC(=O)N2CCc3c(C(=O)NC4CCN(C)CC4)cccc32)cc1` [Analog C32]: the 50% inhibitory concentration (IC50) in assay [2] is less than 20 µM.

The record behind these values is patent publication US20240398767A1, “INHIBITORS OF THE MTDH-SND1 PROTEIN COMPLEX FOR CANCER THERAPY” (The Trustees of Princeton University, priority 2021, published 2024).
